Laboratory results taken from article PMC10488055, “Investigation of Potential cGMP-Specific PDE V and Aminopeptidase N Inhibitors of Allium ampeloprasum L. and Its Bioactive Components: Kinetic and Molecular Docking Studies” (International Journal of Molecular Sciences, 2023).
Like-named read-outs stand apart in the source and are kept apart here.

Columns and labels:
Format in all cases: biochemical
aminopeptidase N (APN) = biological target: T1, aminopeptidase N (APN) (Homo sapiens, UniProt P15144); test: Aminopeptidase N (APN) enzyme activity assay with L-p-NA substrate; conditions: for inhibition of APN in in vitro enzyme assay: at the highest concentration; for enzymatic activity of APN: treatment with 10 mM, without sample 0.38 U
T1 construct: purchased Sigma-Aldrich
Protocol: Figure 2 Effects of AAE and AAE-derived compounds on APN activity. […] The reaction was started by adding 20 μL enzyme solution (1 mU) and incubated for 60 min at 37 °C. The absorbance of samples were measured at 405 nm to determine the formation of p-nitroaniline. Each value is the mean ± SD of triplicate measurements. * p < 0.05 and ** p < 0.01, compared to each control group (Con). Con, control group treated enzyme only.
The activity of APN was determined according to Melzig et al.. Briefly, the enzyme substrate L-p-NA (2 mM) was dissolved in 50 mM N-(2-hydroxyethyl)piperazine-N’-2ethansulfonic acid (HEPES) buffer (pH 7.4) containing 154 mM NaCl. […] The reaction was started by adding 20 μL enzyme solution (approximately 1 mU in HEPES-buffer) and incubated for 60 min at 37 °C. The samples were measured spectrophotometrically at 405 nm to determine the formation of p-nitroanilmne. APN inhibitory activity (%) = ([Absorbance control without sample − Absorbance control with sample]/Absorbance control without sample) × 100

PDE5 = PDE5 (Homo sapiens, UniProt O76074); test: Kinetic assay (Lineweaver–Burk) on PDE5;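 on Kcat: pure compound doses in mM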; design: Vmax / Kcat: unit of the concentration uncertain; conditions: for Kik/Kiv / Ki: PDE5; for Kik/Kiv: ratio according to Yang et al. [27]; for inhibition type against PDE5: from changes of Km and 1/Vmax (Lineweaver–Burk), putative decision system [27]; for Vmax value of PDE5, fold of non-treated group: highest concentration, non-treated 1.039 mU/min = 1.0-fold
Protocol: Lineweaver–Burk plots were employed to analyze the inhibition of the target enzyme. These plots were represented as 1/velocity (1/V) versus 1/substrate concentration (1/[S]) in the presence or absence of each sample (non-treated (black circle), 10 μg or 1 mM (orange circle), 20 μg or 2 mM (silver circle), 50 μg or 5 mM (yellow circle), and 100 μg or 10 mM (blue circle)) as an inhibitor against PDE5.
(§1) These reactions were conducted in a total volume of 80 μL. by a previously described method. The Michaelis–Menten constant (Km) and maximal velocity (Vmax) were calculated using the x and y intercepts, respectively. […] Additionally, the Kik and Kiv inhibition constants were calculated using previously described methods.

APN = biological target: T2, APN (Homo sapiens, UniProt P15144); test: Kinetic assay (Lineweaver–Burk) on APN; conditions: for inhibition type against APN: from Kik/Kiv ratio, new decision system [27]; for Vmax value of APN, fold of non-treated group: non-treated 0.316 mU/min = 1.0-fold
T2 construct: purchased Sigma-Aldrich
Protocol: Lineweaver–Burk plots were employed to analyze the inhibition of the target enzyme. These plots were represented as 1/velocity (1/V) versus 1/substrate concentration (1/(S)) in the presence or absence of each sample (non-treated (black circle), 10 μg or 1 mM (blue circle), 20 μg or 2 mM (green circle), 50 μg or 5 mM (orange circle), and 100 μg or 10 mM (purple circle)) as an inhibitor against APN.
as §1

[1] = biological target: cGMP-specific PDE V (PDE5) (Homo sapiens, UniProt O76074); test: cGMP-specific PDE V (PDE5) enzyme activity assay with p-NPPPh substrate; conditions: for inhibition rate of PDE5: at the highest concentration (in vitro enzyme assay); for reduction of PDE5 enzymatic activity: range over 1, 2, 5, and 10 mM
Protocol: Following the addition of 10 mM p-NPPPh, the reaction mixture was incubated at 37 °C for 10 min. After the incubation period, the concentration of liberated 4-nitrophenol was determined by measuring its absorbance values at a wavelength of 405 nm using a microplate reader. […] Con, control group treated enzyme only.
The specific substrate used for PDE5 was p-NPPPh, following a previously described method. The enzyme solution was prepared by adding 1 U of PDE5 to a volume of 10 μL in 40 mM Tris-HCl buffer at pH 7.4. The substrate solution (10 mM) was prepared by dissolving the substrate in Tris-HCl buffer at pH 7.4. […] Following the pretreatment, the reaction was initiated and allowed to continue for an additional 10 min at 37 °C upon the addition of 10 mM p-NPPPh in a total reaction volume of 80 μL. Following the incubation period, the absorbance of the mixture was measured at 405 nm using a microplate reader. The enzyme activity was quantified in units, where one unit corresponds to the amount of enzyme needed to hydrolyze 1 micromol of p-NPPPh. The inhibitory activity of PDE5 (%) was calculated by determining the residual activity (U). PDE5 inhibitory activity (%) = ([Residual unit control without sample − Residual unit control with sample]/Residual unit control without sample) × 100

[2] = PDE5 treated with compound 1 (unit uncertain)
[3] = PDE5 treated with compound 2 (unit uncertain)
[4] = PDE5 treated with compound 5 (unit uncertain)
[5] = PDE5 treated with compound 10 (unit uncertain)
[6] = APN treated with compound 10 mM
[7] = APN, calculated by method of ref 27, read-out: Kik
[8] = APN, calculated by method of ref 27, read-out: Kiv

T1 sequence (P15144 whole entry, species assumed): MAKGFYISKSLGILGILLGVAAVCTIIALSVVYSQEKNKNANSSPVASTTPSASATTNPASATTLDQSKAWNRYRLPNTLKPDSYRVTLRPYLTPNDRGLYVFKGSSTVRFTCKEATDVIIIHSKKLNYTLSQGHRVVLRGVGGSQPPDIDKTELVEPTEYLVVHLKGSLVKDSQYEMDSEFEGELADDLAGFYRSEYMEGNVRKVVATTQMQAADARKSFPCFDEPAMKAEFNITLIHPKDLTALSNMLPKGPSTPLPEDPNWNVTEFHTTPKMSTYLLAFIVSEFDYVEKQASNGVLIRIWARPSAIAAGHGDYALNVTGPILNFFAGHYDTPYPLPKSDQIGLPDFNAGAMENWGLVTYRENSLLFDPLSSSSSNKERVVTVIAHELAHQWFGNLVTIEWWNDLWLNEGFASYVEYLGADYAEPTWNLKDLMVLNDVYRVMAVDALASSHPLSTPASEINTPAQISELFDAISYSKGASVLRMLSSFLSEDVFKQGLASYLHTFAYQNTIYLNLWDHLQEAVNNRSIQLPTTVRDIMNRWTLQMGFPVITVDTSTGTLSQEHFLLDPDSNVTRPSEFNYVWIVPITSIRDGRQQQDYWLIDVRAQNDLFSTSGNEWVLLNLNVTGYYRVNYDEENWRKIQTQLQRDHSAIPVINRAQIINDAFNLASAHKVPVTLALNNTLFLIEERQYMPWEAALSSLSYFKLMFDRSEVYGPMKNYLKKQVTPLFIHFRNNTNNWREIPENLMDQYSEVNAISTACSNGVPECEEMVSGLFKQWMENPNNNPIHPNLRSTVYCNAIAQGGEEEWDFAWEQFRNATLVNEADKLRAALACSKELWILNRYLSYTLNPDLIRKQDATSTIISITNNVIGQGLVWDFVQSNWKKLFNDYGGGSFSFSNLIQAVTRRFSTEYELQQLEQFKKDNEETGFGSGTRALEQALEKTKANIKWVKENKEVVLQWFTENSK
T2 sequence (P15144 whole entry, species assumed): as above

SMILES: C=CCSSCC=C [DADS, diallyl disulfide]
- IC50 (aminopeptidase N (APN)): > 10 mM
- inhibition of APN in in vitro enzyme assay (aminopeptidase N (APN)): 11%
- enzymatic activity of APN (aminopeptidase N (APN)): 0.34 ± 0.02 U
- Kik/Kiv (PDE5): 16.0
- Kcat (PDE5; [2]): 7253 ± 189 k s^−1
- Vmax (PDE5; [2]): 0.959 ± 0.025 mU/min
- Kcat (PDE5; [3]): 6625 ± 159 k s^−1
- Vmax (PDE5; [3]): 0.876 ± 0.021 mU/min
- Kcat (PDE5; [4]): 5905 ± 83 k s^−1
- Vmax (PDE5; [4]): 0.781 ± 0.011 mU/min
- Kcat (PDE5; [5]): 4383 ± 76 k s^−1
- Vmax (PDE5; [5]): 0.580 ± 0.010 mU/min
- inhibition type against PDE5 (PDE5): noncompetitive-type
- Vmax value of PDE5, fold of non-treated group (PDE5): 0.56 fold
- Kcat (APN; APN treated with compound 1 mM): 394.8 ± 3.7 s⁻¹
- Vmax (APN; APN treated with compound 1 mM): 0.318 ± 0.003 mU/min
- Kcat (APN; APN treated with compound 2 mM): 379.5 ± 7.4 s⁻¹
- Vmax (APN; APN treated with compound 2 mM): 0.306 ± 0.006 mU/min
- Kcat (APN; APN treated with compound 5 mM): 368.8 ± 6.2 s⁻¹
- Vmax (APN; APN treated with compound 5 mM): 0.297 ± 0.005 mU/min
- Kcat (APN; [6]): 364.9 ± 5.0 s⁻¹
- Vmax (APN; [6]): 0.294 ± 0.004 mU/min
- Ki (APN; APN, read-out: Ki): 65.7 mM
- inhibition type against APN (APN): uncompetitive-type
- Vmax value of APN, fold of non-treated group (APN; highest concentration): 0.93 fold

SMILES: C=CCSSSCC=C [DATS, diallyl trisulfide]
- IC50 [1]: 9.49 mM
- inhibition rate of PDE5 [1]: 52%
- reduction of PDE5 enzymatic activity [1]: 8.34–51.75%
- inhibition of APN in in vitro enzyme assay (aminopeptidase N (APN)): 19%
- enzymatic activity of APN (aminopeptidase N (APN)): 0.31 ± 0.02 U
- Ki (PDE5): 7.53 mM
- Kik/Kiv (PDE5): 17.8
- Kcat (PDE5; [2]): 7105 ± 197 k s^−1
- Vmax (PDE5; [2]): 0.940 ± 0.026 mU/min
- Kcat (PDE5; [3]): 6757 ± 242 k s^−1
- Vmax (PDE5; [3]): 0.894 ± 0.032 mU/min
- Kcat (PDE5; [4]): 4955 ± 174 k s^−1
- Vmax (PDE5; [4]): 0.655 ± 0.023 mU/min
- Kcat (PDE5; [5]): 3371 ± 144 k s^−1
- Vmax (PDE5; [5]): 0.446 ± 0.019 mU/min
- inhibition type against PDE5 (PDE5): noncompetitive-type
- Vmax value of PDE5, fold of non-treated group (PDE5): 0.43 fold
- Kcat (APN; APN treated with compound 1 mM): 368.9 ± 7.4 s⁻¹
- Vmax (APN; APN treated with compound 1 mM): 0.297 ± 0.006 mU/min
- Kcat (APN; APN treated with compound 2 mM): 365.3 ± 6.2 s⁻¹
- Vmax (APN; APN treated with compound 2 mM): 0.294 ± 0.005 mU/min
- Kcat (APN; APN treated with compound 5 mM): 309.2 ± 5.0 s⁻¹
- Vmax (APN; APN treated with compound 5 mM): 0.249 ± 0.004 mU/min
- Kcat (APN; [6]): 285.9 ± 5.0 s⁻¹
- Vmax (APN; [6]): 0.230 ± 0.004 mU/min
- Ki (APN; [7]): 68.5 mM
- Ki (APN; [8]): 26.9 mM
- Kik/Kiv (APN; APN, ratio according to Yang et al. [27]): 2.5
- Ki (APN; APN, read-out: Ki): 18.7 mM
- inhibition type against APN (APN): mixed-type
- Km value of APN, fold of non-treated (APN; highest concentration): 1.15 fold
- Vmax value of APN, fold of non-treated group (APN; highest concentration): 0.73 fold

SMILES: C/C=C/[S@+]([O-])C[C@H](N)C(=O)O [IA, isoalliin]
- IC50 [1]: 8.42 mM
- inhibition rate of PDE5 [1]: 51%
- reduction of PDE5 enzymatic activity [1]: 17.23–51.41%
- inhibition of APN in in vitro enzyme assay (aminopeptidase N (APN)): 26%
- enzymatic activity of APN (aminopeptidase N (APN)): 0.28 ± 0.01 U
- Ki (PDE5): 10.8 mM
- Kik/Kiv (PDE5): 13.0
- Kcat (PDE5; [2]): 6587 ± 159 k s^−1
- Vmax (PDE5; [2]): 0.871 ± 0.021 mU/min
- Kcat (PDE5; [3]): 5489 ± 151 k s^−1
- Vmax (PDE5; [3]): 0.726 ± 0.020 mU/min
- Kcat (PDE5; [4]): 4387 ± 129 k s^−1
- Vmax (PDE5; [4]): 0.580 ± 0.017 mU/min
- Kcat (PDE5; [5]): 4018 ± 114 k s^−1
- Vmax (PDE5; [5]): 0.531 ± 0.015 mU/min
- inhibition type against PDE5 (PDE5): noncompetitive-type
- Vmax value of PDE5, fold of non-treated group (PDE5): 0.51 fold
- Kcat (APN; APN treated with compound 1 mM): 381.3 ± 6.2 s⁻¹
- Vmax (APN; APN treated with compound 1 mM): 0.307 ± 0.005 mU/min
- Kcat (APN; APN treated with compound 2 mM): 331.6 ± 7.4 s⁻¹
- Vmax (APN; APN treated with compound 2 mM): 0.267 ± 0.006 mU/min
- Kcat (APN; APN treated with compound 5 mM): 298.9 ± 4.9 s⁻¹
- Vmax (APN; APN treated with compound 5 mM): 0.241 ± 0.004 mU/min
- Kcat (APN; [6]): 275.8 ± 3.7 s⁻¹
- Vmax (APN; [6]): 0.222 ± 0.003 mU/min
- Ki (APN; [8]): 23.7 mM
- Ki (APN; APN, read-out: Ki): 33.1 mM
- inhibition type against APN (APN): mixed-type
- Vmax value of APN, fold of non-treated group (APN; highest concentration): 0.70 fold

SMILES: O=c1c(O)c(-c2ccc(O)cc2)oc2cc(O)cc(O)c12 [KAE, kaempferol]
- IC50 (aminopeptidase N (APN)): > 10 mM
- inhibition of APN in in vitro enzyme assay (aminopeptidase N (APN)): 29%
- enzymatic activity of APN (aminopeptidase N (APN)): 0.27 ± 0.01 U
- Kcat (PDE5; [2]): 5076 ± 98 k s^−1
- Vmax (PDE5; [2]): 0.671 ± 0.013 mU/min
- Kcat (PDE5; [3]): 4591 ± 76 k s^−1
- Vmax (PDE5; [3]): 0.607 ± 0.010 mU/min
- Kcat (PDE5; [4]): 2390 ± 121 k s^−1
- Vmax (PDE5; [4]): 0.316 ± 0.016 mU/min
- Kcat (PDE5; [5]): 1228 ± 69 k s^−1
- Vmax (PDE5; [5]): 0.162 ± 0.009 mU/min
- inhibition type against PDE5 (PDE5): uncompetitive-type
- Kcat (APN; APN treated with compound 1 mM): 396.3 ± 7.5 s⁻¹
- Vmax (APN; APN treated with compound 1 mM): 0.319 ± 0.006 mU/min
- Kcat (APN; APN treated with compound 2 mM): 352.8 ± 7.4 s⁻¹
- Vmax (APN; APN treated with compound 2 mM): 0.284 ± 0.006 mU/min
- Kcat (APN; APN treated with compound 5 mM): 308.0 ± 5.0 s⁻¹
- Vmax (APN; APN treated with compound 5 mM): 0.248 ± 0.004 mU/min
- Kcat (APN; [6]): 268.5 ± 3.7 s⁻¹
- Vmax (APN; [6]): 0.216 ± 0.003 mU/min
- Ki (APN; [7]): 42.1 mM
- Ki (APN; [8]): 21.7 mM
- Ki (APN; APN, read-out: Ki): 11.9 mM
- inhibition type against APN (APN): uncompetitive-type
